Where two headings read alike, the source gives them in different places.
Tests used:
[1] = Simulated in vitro digestion (oral, gastric, intestinal): recovery percentage / bioaccessibility; format: in vitro ADME; conditions: human-simulated digestion
Procedure: The simulated in vitro digestion model was performed based on the methodology described by Garrett et al., with some modifications. Isorhamnetin aglycones and O. ficus-indica extract were subjected to digestion in triplicate. A three-step procedure was applied to simulate the digestive processes in the mouth, stomach, and small intestine. The digestion started with an amount of extract that contained an equivalent of 10 mg of isorhamnetin (60 mg) or 10 mg of isorhamnetin standard. An α-amylase solution (75 Units/mL) was added to 20 mL of solution, adjusted to pH 6.9, which was incubated for 10 min. This mixture was shaken using a VWR® Incubating orbital shaker (Thorofare, NJ, USA) for 10 min at 37 °C and 55 rpm. The gastric digestion started by adjusting the pH to 2 with 1 M HCl and, after, 2 mL of porcine-pepsin solution was added (40 mg/mL in 0.1 M HCl). This mixture was shaken in an incubator for 1 h at 37 °C and 95 rpm. For the intestinal digestion, the solution was previously adjusted to pH 5.3 with 0.9 M NaHCO3 and then a mixture of bile salts and pancreatin (6 mL containing porcine-pancreatin (2 mg/mL), and bile salts (12 mg/mL) dissolved in a NaHCO3 solution (100 mM), were added. Concentrations of pancreatin and bile extract in the final solution were 0.4 and 2.4 mg/mL, respectively. Then, the solution was adjusted to pH 7.5 by adding 1N NaOH. The mixture was shaken in an incubator for 2 h at 37 °C and 95 rpm. The enzyme reaction was inactivated by placing the sample in a hot water bath (80 °C for 2 min). At the end of the process, the digested samples were centrifuged at 13,000× g and 4 °C for 5 min (Thermo Scientific SL 16R centrifuge, Osterode, Germany). The resulting supernatant, which was considered the bioaccessible or absorbable fraction, was recovered. The recovery percentage of each compound was calculated based on the concentration in the supernatant recovered after each phase (oral, gastric, and intestinal) of the in vitro digestion. This fraction was also tested for permeability and potential bioavailability of the isorhamnetin glycosides present in the O. ficus-indica extract.

[2] = Permeability across Caco-2/HT-29 (75:25) co-culture monolayer; format: in vitro ADME, human; conditions: human, pH 7.4
Procedure: (§1) Caco-2 and HT-29 cell lines were obtained from ATCC (American Tissue Culture Collection, Rockville, MD, USA). Cells were cultured in DMEM-F12 supplemented with 10% fetal bovine serum and were maintained at 37 °C in 5% CO2. Before the start of the permeability experiments, the cytotoxicity of isorhamnetin and the O. ficus-indica extract on Caco-2/HT-29 (75:25) co-culture were tested to ensure that the viability of the cells was over 90%. Permeability experiments were performed according to Xie et al. and Hubatsch et al. with slight modifications. Caco-2 and HT-29 co-culture cell monolayer (75:25) were seeded on 6-well transwell plates, with inserts having a polycarbonate membrane with a surface area of 4.71 cm^2 and a pore diameter of 0.4 µm (Costar, Corning, NY, USA) at a final seeding density of 1 × 10^6 cells/insert, cultured for 21 days. Caco-2 cell monolayers were washed with warm HBSS medium (pH 7.4) and then digested samples of isorhamnetin aglycone or O. ficus-indica extract were added to the apical side (AP: 1.5 mL), whereas the receiving compartment or basolateral side (BL: 2.5 mL) contained the corresponding volume of HBSS. Plates with transwell inserts were incubated at 37 °C in an orbital shaking incubator at 100 rpm. Aliquots of 1 mL were withdrawn from both compartments at 15, 30, 60 and 120 min, and fresh HBSS was added to replace the withdrawn volume. Samples were immediately frozen and preserved at −20 °C until HPLC analysis. All experiments were performed in triplicate.
(§2) The apparent permeability coefficient (Papp) was calculated from the cumulative amount permeated versus the time profile according the following Equation (1): Papp = (dQ/dt) × (V/A × C0) (1) where dQ/dt is the change in drug concentration in the receiver solution (µM/s), V represents the volume of the solution in the receiving compartment (mL), A denotes the membrane surface area (cm^2), and C0 is the initial concentration in the donor compartment (µM).
(§3) The integrity of the monolayers was measured at the beginning and the end of the experiment using the paracellular permeability of lucifer yellow (LY). Fluorescence was measured at 530 nm (emission) and 485 nm (excitation) using a microplate reader (Synergy HT, BioTek, Winooski, VM). The data from membranes displaying an LY apparent permeability coefficient (Papp) > 1 × 10^−6 cm/s were excluded.

[3] = tested on: Caco-2/HT-29 cell monolayer; assay: as above; format: in vitro ADME, human; conditions: for Efflux ratio [Papp(BL-AP)/Papp(AP-BL)]: Caco-2/HT-29 (Figure 2b); for Apparent permeability coefficient apical to basolateral, Papp(AP-BL): Caco-2/HT-29 co-culture, digested samples
Procedure: as §1, §2, §3

[4] = Plasma stability / pharmacokinetics after intravenous dose in rats; parameters: species or system rat; conditions: male, Wistar, in vivo, intravenous dose 2 mg/kg
Procedure: Twenty-seven male Wistar rats, weighing approximately 200 g (eight weeks old), were divided in nine groups of three animals each. One group was taken as a control and received only a saline solution through the caudal vein. Four groups received an intravenous dose (2 mg/kg) of the O. ficus-indica extract and the last four groups received the commercial isorhamnetin standard. The dosage was determined based on results previously reported by Antunes-Ricardo et al.. Animals were anaesthetized with ketamine/xilazyne (60 mg/kg; 10 mg/kg), and then blood was extracted by intracardiac puncture at different sampling times (0.25, 0.5, 1 and 1.5 h). This procedure was randomized to avoid any bias results. After blood extraction, the animals were sacrificed by cervical dislocation. Plasma was obtained as previously described (see Section 4.6) and the samples were stored at −20 °C until analysis.
Plasma samples were spiked with 25 µL of quercetin (30 µg/mL) as an internal standard. Then, plasma samples were submitted to an acid hydrolysis with 2 M HCl for 180 min at 80 °C. Then, samples were extracted with 100% methanol (10:1, v/v), centrifuged, and the resulting supernatants were quantified by HPLC-PDA. The area under the concentration-time curve (AUC0−1.5 h) was calculated based on the linear trapezoidal method. The elimination half-life (t1/2) was determined by linear regression of the terminal portion of the plasma concentration-time data. The plasma clearance (CLplasma) was calculated by multiplying the volume of distribution, Vd, by the elimination constant, Kel, according to the following Equation (3): CLplasma: Vd × Kel (3)

Caco-2 cell monolayer = conditions: cited from earlier work
[5] = parameters: method as in Duan et al. [24]; conditions: ref Duan et al. [24]; cited from earlier work
[6] = cited from earlier work; for Recovery after intestinal digestion: ref Ydjedd et al. [40]
[7] = cited from earlier work
[8] = Caco-2 monolayer, ref Xie et al. [47]
[9] = intestinal phase, pH 7.5, pancreatin and bile salts

## COc1cc(-c2oc3cc(O)cc(O)c3c(=O)c2O)ccc1O [I, isorhamnetin]
[1]; intestinal phase, pH 7.5, pancreatin and bile salts, read-out: Recovery percentage after intestinal digestion phase
  recovery at 2 h, 0.33 mg/mL: 74.3 ± 7.4%
[1]; oral phase, pH 6.9, α-amylase, read-out: Recovery percentage after oral digestion phase
  recovery at 10 min, 0.5 mg/mL: 35 ± 2.4%
[1]; simulated in vitro digestion, gastric phase, pH 2, pepsin, read-out: Recovery percentage after gastric digestion phase
  recovery at 1 h: 49 ± 3.4%
[2]; Caco-2/HT-29 (Figure 2b), read-out: Efflux ratio [Papp(BL-AP)/Papp(AP-BL)]
  efflux ratio at 120 min: 0.6
[2]; Caco-2/HT-29 co-culture, digested samples, read-out: Apparent permeability coefficient apical to basolateral, Papp(AP-BL)
  Papp A→B at 120 min: 4.74 ± 0.02 ×10⁻⁶ cm/s
[3]; Caco-2/HT-29
  Papp basolateral to apical relative to Papp apical to basolateral: two-fold lower
[4]; rat plasma, isorhamnetin after acid hydrolysis, read-out: AUC0–1.5 h of isorhamnetin
  AUC(0-t): 104 ± 4.89 µM·h
[4]; rat plasma, read-out: Elimination half-life t1/2 (converted)
  half-life: 38.4 min
[4]; rat, read-out: CL plasma
  clearance: 7.44 ± 1.21 mL/min
Caco-2 cell monolayer; Caco-2 cells, ref Lan et al. [35]
  Papp(AP-BL): 2.28 ± 0.09 × 10^−6 cm/s
Caco-2 cell monolayer; Caco-2 monolayer, tested alone, ref Xie et al. [47]
  Papp: 1.61e-06 cm/s
Caco-2 cell monolayer; [8]
  Increase of Papp in combination with kaempferol: 1.33 fold
  Increase of Papp in combination with quercetin: 2.38 fold
[5]
  pKa: 6.3
[6]; from almond skins, ref [19]
  Bioaccessibility after a simulated digestion: 25.1 ± 7.0%

## O=c1c(O[C@@H]2O[C@H](CO)[C@H](O)[C@H](O)[C@H]2O)c(-c2ccc(O)c(O)c2)oc2cc(O)cc(O)c12 [Quercetin-3-galactoside]
Caco-2 cell monolayer; ref Duan et al. [24]
  Efflux ratio compared with quercetin-3-glucoside: higher efflux ratio
[7]; after ingestion of cranberry juice, ref Wang et al. [55]
  Concentration in plasma: 10 to 15 ng/mL

## O=c1cc(-c2ccccc2)oc2cc(O)cc(O)c12 [chrysin]
Caco-2 cell monolayer; ref [36]
  Permeability basolateral to apical relative to apical to basolateral: two-fold higher

## COc1ccc([C@@H]2CC(=O)c3c(O)cc(O[C@@H]4O[C@H](CO)[C@@H](O)[C@H](O)[C@H]4O)cc3O2)cc1O [hesperetin-7-O-glucoside]
[7]; human, in vivo
  Bioavailability higher than hesperetin-7-O-rutinoside: 76%
[7]; in vivo, po
  tmax: 0.5 ± 0.1 h
[7]; in vivo
  Improvement of bioavailability on removing the rhamnose moiety from hesperetin-7-glucosyl-rhamnoside: two-fold

## COc1ccc([C@@H]2CC(=O)c3c(O)cc(O[C@@H]4O[C@H](CO[C@@H]5O[C@@H](C)[C@H](O)[C@@H](O)[C@H]5O)[C@@H](O)[C@H](O)[C@H]4O)cc3O2)cc1O [hesperetin-7-O-rutinoside]
[7]; after oral consumption, ref [32]
  tmax: 4.8 ± 2.2 h

## C[C@@H]1O[C@@H](Oc2c(-c3cc(O)c(O)c(O)c3)oc3cc(O)cc(O)c3c2=O)[C@H](O)[C@H](O)[C@H]1O [myricetin-rhamnoside]
[6]; ref Ortega et al. [39]
  Recovery after a simulated digestion process: 51.5%
[6]
  Recovery after intestinal digestion: 40.2%

## O=c1c(O)c(-c2ccc(O)c(O)c2)oc2cc(O)cc(O)c12 [quercetin as aglycone, quercetin]
[7]; in humans, ref [54]
  AUC0–24 h: 2.5 ± 2.2 µg·h/mL
[7]; ref Petersen et al. [56]
  AUC0–1440 min of quercetin: 62 ± 12 µmol·min/L

## C[C@@H]1O[C@@H](Oc2c(-c3ccc(O)c(O)c3)oc3cc(O)cc(O)c3c2=O)[C@H](O)[C@H](O)[C@H]1O [quercetin rhamnoside]
[6]
  Recovery after intestinal digestion: 47.9%

## isorhamnetin-3-O-glucosyl-pentoside [IGP]
[1]; gastric phase, pH 2, pepsin
  Recovery percentage after gastric digestion phase: 93.5 ± 3.3 ^A,a %
[1]; [9]
  Recovery percentage after intestinal digestion phase: 73.3 ± 3.5 ^A,b %
[1]; oral phase, pH 6.9, α-amylase
  Recovery percentage after oral digestion phase: 96.6 ± 4.7 ^A,a %
[3]
  Efflux ratio [Papp(BL-AP)/Papp(AP-BL)]: 3.0

## isorhamnetin-3-O-glucosyl-rhamnoside [IGR]
[1]; gastric phase, pH 2, pepsin
  Recovery percentage after gastric digestion phase: 96.8 ± 0.9 ^A,a %
[1]; [9]
  Recovery percentage after intestinal digestion phase: 81.0 ± 4.6 ^A,b %
[1]; oral phase, pH 6.9, α-amylase
  Recovery percentage after oral digestion phase: 99.6 ± 3.8 ^A,a %
[3]
  Efflux ratio [Papp(BL-AP)/Papp(AP-BL)]: 3.1
  Apparent permeability coefficient apical to basolateral, Papp(AP-BL): 1.72 ± 0.01 × 10^−6 cm/s
Caco-2 cell monolayer; Caco-2 monolayers, ref Tian et al. [23]
  Papp(AP-BL): 2.9e-07 cm/s

## isorhamnetin-3-O-glucosyl-rhamnosyl-pentoside [IGRP]
[1]; gastric phase, pH 2, pepsin
  Recovery percentage after gastric digestion phase: 96.2 ± 0.4 ^A,a %
[1]; [9]
  Recovery percentage after intestinal digestion phase: 80.3 ± 1.9 ^A,b %
[1]; oral phase, pH 6.9, α-amylase
  Recovery percentage after oral digestion phase: 93.8 ± 5.2 ^A,a %
[3]
  Efflux ratio [Papp(BL-AP)/Papp(AP-BL)]: 5.2
  Apparent permeability coefficient apical to basolateral, Papp(AP-BL): 1.28 ± 0.02 × 10^−6 cm/s

## isorhamnetin-3-O-glucosyl-rhamnosyl-rhamnoside [IGRR]
[1]; gastric phase, pH 2, pepsin
  Recovery percentage after gastric digestion phase: 96.0 ± 4.4 ^A,a %
[1]; [9]
  Recovery percentage after intestinal digestion phase: 79.5 ± 1.8 ^A,b %
[1]; oral phase, pH 6.9, α-amylase
  Recovery percentage after oral digestion phase: 99.1 ± 3.8 ^A,a %
[3]
  Efflux ratio [Papp(BL-AP)/Papp(AP-BL)]: 5.9
  Apparent permeability coefficient apical to basolateral, Papp(AP-BL): 1.03 ± 0.04 × 10^−6 cm/s

## quercetin-3-glucosyl-rhamnoside
[6]; ref Tenore et al. [37]
  Decrease in levels after intestinal digestion phase compared with gastric step: 18.6%

From paper PMC5578202, “Bioaccessibility, Intestinal Permeability and Plasma Stability of Isorhamnetin Glycosides from Opuntia ficus-indica (L.)” (International Journal of Molecular Sciences, 2017)
